The source of these data is patent publication US20240398805A1, “QUINAZOLINE DERIVED COMPOUNDS AS EGFR INHIBITORS AND THEIR USES THEREOF” (ACCUTAR BIOTECHNOLOGY INC., priority 2021, published 2024).

Common to all, as to format: cell-based
Assay [1] relates to HCC827 cells. Description: Cell growth inhibition (CellTiter-Glo, 3 days) in HCC827. As to conditions: Homo sapiens, 72 h, 3 days after administration. In short, it runs like this: (§1)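 Growth inhibition was scored by CellTiter-Glo luminescence after 3-day compound exposure at various concentrations. Cells were plated at 5000/well the day before treatment: A431 in DMEM and HCC827 in RPMI, each with 10% FBS.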

Assay [2] concerns HCC827-SVD cells (human EGFR exon 20 insertion mutant D770_N771 insSVD). As to the kind of experiment: Cell growth inhibition (CellTiter-Glo, 3 days) in HCC827-SVD. As to conditions: 72 h, 3 days after administration. In short, it runs like this:
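HCC827 cells carrying lentiviral codon-optimized EGFR D770_N771 insSVD, with endogenous EGFR knocked out by CRISPR (single clone), seeded at 5000 cells/well in RPMI with 10% FBS. Viability read by CellTiter-Glo luminescence.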

Assay [3] deals with HCC827-YVMA cells (human ERBB2 exon20 insertion mutant A775_G776ins YVMA). As to the kind of experiment: Cell growth inhibition (CellTiter-Glo, 3 days) in HCC827-YVMA. As to conditions: 72 h, 3 days after administration. The method in brief: (§2)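 Growth inhibition used a CellTiter-Glo luminescence read-out after 3 days of compound exposure at various concentrations. Cells were plated the day before at 5000/well in RPMI plus 10% FBS. The lines are HCC827 transduced by lentivirus with codon-optimized EGFR ASV or ERBB2 YVMA exon 20 insertions.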

The test system of assay [4] is A431 cells. Description: Cell growth inhibition (CellTiter-Glo, 3 days) in A431. As to conditions: Homo sapiens, A-431, 72 h, 3 days after administration. In short, it runs like this:
as §1

Assay [5] has as its system HCC827-ASV cells (human EGFR exon 20 insertion mutant A769_D770insASV). Description: Cell growth inhibition (CellTiter-Glo, 3 days) in HCC827-ASV. The note with it: 72 h, 3 days after administration. In short, it runs like this: as §2

As to `C=CC(=O)N1CCC(Nc2cc3c(Nc4ccc(Oc5ccnc(N6CCNC(C)(C)C6)c5)cc4F)ncnc3cc2OC)CC1` [Example 226, 1-(4-((4-((4-((2-(3,3-dimethylpiperazin-1-yl)pyridin-4-yl)oxy)-2-fluorophenyl)amino)-7-methoxyquinazolin-6-yl)amino)piperidin-1-yl)prop-2-en-1-one], the GI50 is at least 1000 nM in assay [1]; 300 to 600 nM in assay [2]; at least 1000 nM in assay [3]; at least 1000 nM in assay [4]; at least 1000 nM in assay [5].
On to `C=CC(=O)N1CCC(Nc2cc3c(Nc4ccc(Oc5ccnc(N6CCC[C@@H](OC)C6)c5)c(Cl)c4)ncnc3cc2OC)CC1` [Example 227, (R)-1-(4-((4-((3-chloro-4-((2-(3-methoxypiperidin-1-yl)pyridin-4-yl)oxy)phenyl)amino)-7-methoxyquinazolin-6-yl)amino)piperidin-1-yl)prop-2-en-1-one], for which the 50% growth inhibitory concentration (GI50) in assay [1] fell in the range of 100 to 300 nM; in assay [2], 30 to 60 nM; in assay [3] it was 60 to 100 nM; in assay [4] it was 300 to 600 nM; in assay [5], 60 to 100 nM.
Regarding `C=CC(=O)N1CCC(Nc2cc3c(Nc4ccc(Oc5ccnc(N6CCN(C)CC6)c5)c(Cl)c4)ncnc3cc2OC)CC1` [Example 228, 1-(4-((4-((3-chloro-4-((2-(4-methylpiperazin-1-yl)pyridin-4-yl)oxy)phenyl)amino)-7-methoxyquinazolin-6-yl)amino)piperidin-1-yl)prop-2-en-1-one], the GI50 is 300 to 600 nM in assay [1]; 100 to 300 nM in assay [2]; 60 to 100 nM in assay [3]; at least 1000 nM in assay [4]; 60 to 100 nM in assay [5].
As to `C=CC(=O)N1CCC(Nc2cc3c(Nc4ccc(Oc5ccnc(N6CCC(O)CC6)c5)c(Cl)c4)ncnc3cc2OC)CC1` [Example 229, 1-(4-((4-((3-chloro-4-((2-(4-hydroxypiperidin-1-yl)pyridin-4-yl)oxy)phenyl)amino)-7-methoxyquinazolin-6-yl)amino)piperidin-1-yl)prop-2-en-1-one], the GI50 is 100 to 300 nM in assay [1]; 60 to 100 nM in assay [2]; 100 to 300 nM in assay [3]; 300 to 600 nM in assay [4]; 100 to 300 nM in assay [5].
Regarding `C=CC(=O)N1CCC(Nc2cc3c(Nc4ccc(Oc5ccnc(N6CCC[C@@H](OC)C6)c5)cc4)ncnc3cc2OC)CC1` [Example 230, (R)-1-(4-((7-methoxy-4-((4-((2-(3-methoxypiperidin-1-yl)pyridin-4-yl)oxy)phenyl)amino)quinazolin-6-yl)amino)piperidin-1-yl)prop-2-en-1-one], the GI50 in assay [1] is 300 to 600 nM; in assay [2], 30 to 60 nM; in assay [3] it was below 30 nM; in assay [4] it was at least 1000 nM; in assay [5], below 30 nM.
Turning to `C=CC(=O)N1CCC(Nc2cc3c(Nc4ccc(Oc5ccnc(N6CCN(C)CC6)c5)cc4)ncnc3cc2OC)CC1` [Example 231, 1-(4-((7-methoxy-4-((4-((2-(4-methylpiperazin-1-yl)pyridin-4-yl)oxy)phenyl)amino)quinazolin-6-yl)amino)piperidin-1-yl)prop-2-en-1-one], the GI50 in assay [1] was at least 1000 nM; in assay [2], 300 to 600 nM; in assay [3], 100 to 300 nM; in assay [4], at least 1000 nM; in assay [5], 100 to 300 nM.
For `C=CC(=O)N1CCC(Nc2cc3c(Nc4ccc(Oc5ccnc(-c6cccc(C)c6)c5)cc4F)ncnc3cc2OC)CC1` [Example 234, 1-(4-((4-((2-fluoro-4-((2-(m-tolyl)pyridin-4-yl)oxy)phenyl)amino)-7-methoxyquinazolin-6-yl)amino)piperidin-1-yl)prop-2-en-1-one], the GI50 in assay [1] was 60 to 100 nM; in assay [2], 30 to 60 nM; in assay [3], below 30 nM; in assay [4], 300 to 600 nM; in assay [5] it was below 30 nM.
As to `C=CC(=O)N1CCC(Nc2cc3c(Nc4ccc(Oc5ccnc(-c6ccc(C)cc6)c5)cc4F)ncnc3cc2OC)CC1` [Example 235, 1-(4-((4-((2-fluoro-4-((2-(p-tolyl)pyridin-4-yl)oxy)phenyl)amino)-7-methoxyquinazolin-6-yl)amino)piperidin-1-yl)prop-2-en-1-one], the GI50 in assay [1] is 60 to 100 nM; in assay [2] it was 30 to 60 nM; in assay [3], 60 to 100 nM; in assay [4] it was 600 to 1000 nM; in assay [5] it was 30 to 60 nM.
For the compound `C=CC(=O)N1CCC(Nc2cc3c(Nc4ccc(Oc5ccnc(-c6ccccn6)c5)cc4F)ncnc3cc2OC)CC1` [Example 236, 1-(4-((4-((4-([2,2′-bipyridin]-4-yloxy)-2-fluorophenyl)amino)-7-methoxyquinazolin-6-yl)amino)piperidin-1-yl)prop-2-en-1-one], the GI50 in assay [1] was 100 to 300 nM; in assay [2], below 30 nM; in assay [3], below 30 nM; in assay [4], at least 1000 nM; in assay [5], below 30 nM.
For `C=CC(=O)N1CCC(Nc2cc3c(Nc4ccc(Oc5ccnc(-c6cccnc6)c5)cc4F)ncnc3cc2OC)CC1` [Example 237, 1-(4-((4-((4-([2,3′-bipyridin]-4-yloxy)-2-fluorophenyl)amino)-7-methoxyquinazolin-6-yl)amino)piperidin-1-yl)prop-2-en-1-one], the GI50 is 300 to 600 nM in assay [1]; 30 to 60 nM in assay [2]; below 30 nM in assay [3]; at least 1000 nM in assay [4]; 60 to 100 nM in assay [5].
Turning to `C=CC(=O)N1CCC(Nc2cc3c(Nc4ccc(Oc5ccnc(-c6ccncc6)c5)cc4F)ncnc3cc2OC)CC1` [Example 238, 1-(4-((4-((4-([2,4′-bipyridin]-4-yloxy)-2-fluorophenyl)amino)-7-methoxyquinazolin-6-yl)amino)piperidin-1-yl)prop-2-en-1-one], the 50% growth inhibitory concentration (GI50) was 100 to 300 nM in assay [1]; below 30 nM in assay [2]; below 30 nM in assay [3]; at least 1000 nM in assay [4]; below 30 nM in assay [5].
As to `C=CC(=O)N1CCC(Nc2cc3c(Nc4ccc(Oc5ccnc(N6CC7CCCC7C6)c5)cc4F)ncnc3cc2OC)CC1` (centres unmarked) [Example 239, 1-(4-((4-((2-fluoro-4-((2-(hexahydrocyclopenta [c]pyrrol-2(1H)-yl)pyridin-4-yl)oxy)phenyl)amino)-7-methoxyquinazolin-6-yl)amino)piperidin-1-yl)prop-2-en-1-one], the GI50 is below 30 nM in assay [1]; below 30 nM in assay [2]; 60 to 100 nM in assay [3]; 300 to 600 nM in assay [4]; 60 to 100 nM in assay [5].
For `C=CC(=O)N1CCC(Nc2cc3c(Nc4ccc(Oc5ccnc(N6CC7CN(C)CC7C6)c5)cc4F)ncnc3cc2OC)CC1` (centres unmarked) [Example 240, 1-(4-((4-((2-fluoro-4-((2-(5-methylhexahydropyrrolo[3,4-c]pyrrol-2(1H)-yl)pyridin-4-yl)oxy)phenyl)amino)-7-methoxyquinazolin-6-yl)amino)piperidin-1-yl)prop-2-en-1-one], the GI50 in assay [1] is 600 to 1000 nM; in assay [2] it was 300 to 600 nM; in assay [3], 300 to 600 nM; in assay [4] it was at least 1000 nM; in assay [5], 300 to 600 nM.
